Test results taken from BindingDB's records for doi:10.1021/jm031011g (Xenova, 2004).

What was measured:
[1] = target: Multidrug resistance-associated protein 1 (Homo sapiens) (UniProt P33527); assay: Effective concentration to inhibit MRP1 in potentiation assay
[2] = target: Multidrug resistance-associated protein 1 (Homo sapiens) (UniProt P33527); assay: as above; remark: listed apart in the source

Sequence of Multidrug resistance-associated protein 1 (Homo sapiens) (P33527 whole entry, looked up): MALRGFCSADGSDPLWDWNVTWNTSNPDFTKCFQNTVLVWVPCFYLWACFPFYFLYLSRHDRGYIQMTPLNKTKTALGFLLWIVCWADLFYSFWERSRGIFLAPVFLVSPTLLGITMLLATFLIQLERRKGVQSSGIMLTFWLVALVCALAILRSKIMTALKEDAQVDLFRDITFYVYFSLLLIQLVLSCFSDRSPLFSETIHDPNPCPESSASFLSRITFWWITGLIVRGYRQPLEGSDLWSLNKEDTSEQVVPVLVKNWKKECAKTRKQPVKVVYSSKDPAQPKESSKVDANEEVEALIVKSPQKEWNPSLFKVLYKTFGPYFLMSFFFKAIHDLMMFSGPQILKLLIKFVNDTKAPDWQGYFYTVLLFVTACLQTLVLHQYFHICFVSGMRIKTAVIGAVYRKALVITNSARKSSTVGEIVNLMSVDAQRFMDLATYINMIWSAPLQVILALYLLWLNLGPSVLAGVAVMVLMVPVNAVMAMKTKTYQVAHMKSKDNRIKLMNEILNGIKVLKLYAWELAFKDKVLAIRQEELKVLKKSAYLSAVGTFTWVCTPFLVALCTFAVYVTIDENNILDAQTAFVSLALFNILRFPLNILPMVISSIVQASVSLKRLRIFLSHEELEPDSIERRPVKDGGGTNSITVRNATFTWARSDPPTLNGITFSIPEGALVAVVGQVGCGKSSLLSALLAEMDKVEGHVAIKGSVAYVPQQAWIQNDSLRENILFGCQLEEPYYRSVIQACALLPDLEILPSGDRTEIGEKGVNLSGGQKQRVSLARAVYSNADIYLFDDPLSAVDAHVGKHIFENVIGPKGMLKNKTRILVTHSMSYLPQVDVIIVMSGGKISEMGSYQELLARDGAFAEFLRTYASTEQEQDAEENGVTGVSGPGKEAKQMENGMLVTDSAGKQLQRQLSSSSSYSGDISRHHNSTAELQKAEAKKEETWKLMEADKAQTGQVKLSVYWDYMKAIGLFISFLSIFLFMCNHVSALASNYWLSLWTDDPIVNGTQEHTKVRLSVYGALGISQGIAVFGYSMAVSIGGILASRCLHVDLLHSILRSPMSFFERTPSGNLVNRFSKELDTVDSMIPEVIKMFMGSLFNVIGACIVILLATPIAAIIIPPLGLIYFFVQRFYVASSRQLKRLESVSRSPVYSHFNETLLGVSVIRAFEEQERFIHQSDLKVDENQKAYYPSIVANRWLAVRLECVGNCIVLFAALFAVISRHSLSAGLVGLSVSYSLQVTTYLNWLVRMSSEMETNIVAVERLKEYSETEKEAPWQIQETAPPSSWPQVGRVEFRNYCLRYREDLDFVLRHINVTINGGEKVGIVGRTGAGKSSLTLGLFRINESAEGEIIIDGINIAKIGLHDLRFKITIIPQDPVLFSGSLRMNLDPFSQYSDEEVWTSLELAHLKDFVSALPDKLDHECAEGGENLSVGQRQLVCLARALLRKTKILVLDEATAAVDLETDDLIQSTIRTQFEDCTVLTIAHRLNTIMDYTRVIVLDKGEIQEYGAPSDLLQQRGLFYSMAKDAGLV

| EC50 [1] [nM] | EC50 [2] [nM] | SMILES |
| --- | --- | --- |
| 150 |  | COc1cccc(CNC(=O)c2c3n(c4c(N5CCN(CCc6ccc(F)c(F)c6)CC5)ncnc24)CCCC3)c1OC [4-{4-[2-(3,4-Difluoro-phenyl)-ethyl]-piperazin-1-yl}-6,7,8,9-tetrahydro-pyrimido[4,5-b]indolizine-10-carboxylic acid 2,3-dimethoxy-benzylamide] |
|  | 97 | O=C(NCc1ccccn1)c1c2n(c3c(N4CCN(CCc5ccc(F)c(F)c5)CC4)ncnc13)CCCC2 [4-{4-[2-(3,4-Difluoro-phenyl)-ethyl]-piperazin-1-yl}-6,7,8,9-tetrahydro-pyrimido[4,5-b]indolizine-10-carboxylic acid (pyridin-2-ylmethyl)-amide] |
|  | 117 | NC(=O)c1c2n(c3c(N4CCN(CCc5ccc(F)c(F)c5)CC4)ncnc13)CCCC2 [4-{4-[2-(3,4-Difluoro-phenyl)-ethyl]-piperazin-1-yl}-6,7,8,9-tetrahydro-pyrimido[4,5-b]indolizine-10-carboxylic acid amide] |
